Earlier results on 2 compounds are cited in patent US6576415B2, “Photothermographic materials with increa sed photosensitivity” (priority 2000, dated 2003).

The structures appear in SMILES notation. Like-named read-outs stand apart in the source and are kept apart here.

For `[Ag+].[Ag+].[O]=[W](=[O])([O-])[O-]` [silver tungstate], under “at 15° C.”, the Solubility in water was 0.5 mg/mL. For the compound `O=P(=O)[O-].[Ag+]` [silver metaphosphate], the Solubility in water (at 20° C.) was 3.2 mg/mL.
